Key:
[1] = system: artemia salina; assay: Insecticidal model activity against artemia salina (Brine shrimp) in 96 well microplate (movement graded 0-3, MIC); assay type: in vivo; conditions: concentration required to give Indication 2 (or 3) for artemia salina; 20° C., observed after 24 and 48 hours
Source text: (§1) Methods for determining antiparasitic effects of the compounds disclosed according to the present invention are explained below.
(§2) As model insects for simple determination of antiparasitic and insecticidal activities, those insects are desired which can be easily obtained and bred in laboratories, and have no pathogenicity to a human. Caenorhabditis elegans, an unparasitic eelworm widely used in experiments of genetics, was used as a typical steam worm, and artemia salina used as feed for tropical fish and named Brine shrimp, was used instead of insects.
<Preparation of Artemia salina Used for Evaluation>
To a buffer for artemia salina (obtained by dissolving 0.24% of Tris, 2.57% of sodium chloride, 0.47% of magnesium chloride, 0.07% of potassium chloride, 0.02% of sodium carbonate, 0.64% of magnesium sulfate and 0.11% of calcium chloride in distilled water and adjusting the pH to 7.1 with hydrochloric acid), dried eggs of artemia salina [Tetra Brine Shrimp Eggs, Warner Lambert Co.] were added. The noprius larvae 1 or 2 days after hatching were used for the experiments.
(§3) Each well of a 96 well microplate was filled with the solution of the test compound (methanol as a solvent), and the solvent was removed using a vacuum pump, then 250 μl of the assay medium was added to each wells (the assay medium was prepared by dissolving 7.5 mM sodium hydrogencarbonate, 7.5 mM potassium chloride, 7.5 mM calcium chloride dihydrate and 7.5 mM magnesium sulfate heptahydrate in distilled water and adding 0.01% of lecithin to the solution), and then the microplate was shaken using a microplate mixer for 15 minutes. To each well, a few individuals of caenorhabditis elegans were added by softly rubbing the surface of the agar using a toothpick, or a few individuals of artemia salina were added together with 50 μl of the buffer. The microplate was incubated at 20° C., and then the insects were observed after 24 and 48 hours under a microscope (magnification of 40×). The results were compared to those obtained without addition of the test compound, and evaluated by 4 grades.
(§4) The evaluation results were shown by indications of 4 grades from 0 to 3.
1: A little week movements
Of the 4 grades, Indications 3 and 2 were judged as effective, and Indications 1 and 0 as ineffective. In Table 7, the values for each compound are minimum inhibitory concentrations (MIC) which were required to give Indication 2 (or 3) for caenorhabditis elegans or artemia salina. In Table 7, caenorhabditis elegans and artemia salina are abbreviated as C.E. and A.S., respectively.

[2] = system: Caenorhabditis elegans; assay: Antiparasitic activity against Caenorhabditis elegans in 96 well microplate (movement graded 0-3, MIC); assay type: in vivo; conditions: concentration required to give Indication 2 (or 3) for caenorhabditis elegans; 20° C., observed after 24 and 48 hours
Source text: as §1, §2
Preparation of Caenorhabditis elegans Used for Evaluation
Escherichia coli for the feed of caenorhabditis elegans (mutant having uracil requirement) was inoculated in a seed medium for E. coli to which a small amount of uracil was added, and cultured with shaking at 27° C. for 1 day. A petri dish of 6 cm diameter was filled with 10 mL of an agar medium for eelworm proliferation, and the medium was solidified. Then 0.5 mL of the culture of E. coli was spread over the medium in the dish, and the dish was incubated at 37° C. to proliferate E. coli. A piece of the agar was collected with a platinum loop from a petri dish in which caenorhabditis elegans successfully proliferated, and inoculated in petri dishes in which E. coli was proliferated. The petri dishes were incubated at 20° C. to proliferate caenorhabditis elegans. Since the life of eelworm is about 2 weeks, subculture was carried out every once a week. The eelworms grown with spread on the surface of the petri dish after 3 to 5 days from subculture were used for the experiments.
<Preparation of Agar Medium for Eelworm Proliferation>
Solution A was obtained by dissolving 0.3% of sodium chloride, 1.7% of bact-agar (DIFCO Co.), 0.5% of bact-peptone (DIFCO Co.) and 1.0% of yeast extract (DIFCO Co.) in distilled water.
Solution B was obtained by dissolving 0.5% of cholesterol in ethanol.
Solution C was obtained by dissolving 13.9% of calcium chloride in distilled water.
Solution D was obtained by dissolving 30.8% of magnesium sulfate heptahydrate in distilled water.
Solution E was obtained by dissolving 13.54% of KH2PO4 and 4.45% of K2HPO4 in distilled water.
The aforementioned Solutions A, C and D were sterilized in an autoclave at 121° C. for 20 minutes, and each solution was stored at 4° C.
The agar medium for eelworm proliferation was prepared by mixing the solutions in the following proportion: Solution A: 100 mL, Solution B: 0.1 mL, Solution C: 0.05 mL, Solution D: 0.1 mL and Solution E: 2.5 mL (without pH adjustment), and dispensing each 10 mL portion into petri dishes of 60×15 mm.
<Preparation of E. coli Seed Medium>
In distilled water, 2.0% of bact-trypton (DIFCO Co.), 0.55% of sodium chloride and 0.001% of uracil (SIGMA Co., pH 7.4) were dissolved, and the solution was sterilized in an autoclave at 121° C. for 20 minutes.
as §3, §4
1: A little week movements […]

Compound | A.S. minimum inhibitory concentrations (MIC) [1] [ng/mL] | C.E. minimum inhibitory concentrations (MIC) [2] [ng/mL]
CC[C@H](C)[C@H]1O[C@]2(C=C[C@@H]1C)C[C@@H]1C[C@@H](C/C=C(\C)[C@@H](O[C@H]3C[C@H](OC)[C@@H](O)[C@H](C)O3)[C@@H](C)/C=C/C=C3\CO[C@@H]4[C@H](O)C(C)=C[C@@H](C(=O)O1)[C@]34O)O2 [Avermectin B1a monosaccharide, avermectin B1a monosaccharide] | 2 | 2
CCC(C)C1O[C@]2(C=C[C@@H]1C)C[C@@H]1CC(C/C=C(\C)[C@@H](OC3C[C@H](OC)[C@@H](OC4C[C@H](OC)[C@@H](O)[C@H](C)O4)[C@H](C)O3)[C@@H](C)/C=C/C=C3\COC4[C@H](O)C(C)=CC(C(=O)O1)[C@]34O)O2 (stereo partly drawn) [Avermectin B1a] | 0.5 | 2
CCC(C)C1OC2(C=C[C@@H]1C)CC1CC(C/C=C(\C)C(O[C@H]3CC(OC)C(=CC(=O)O)C(C)O3)[C@@H](C)/C=C/C=C3\COC4C(O)C(C)=CC(C(=O)O1)[C@]34O)O2 (stereo partly drawn) [Compound 6] | 2 | 2
CCC(C)C1OC2(CC[C@@H]1C)CC1CC(C/C=C(\C)C(O[C@H]3CC(OC)C(=CC#N)C(C)O3)[C@@H](C)/C=C/C=C3\COC4C(O)C(C)=CC(C(=O)O1)[C@]34O)O2 (stereo partly drawn) [Compound 22] | 2 | 2
CCC(C)C1OC2(CCC1C)CC1CC(CC=C(C)C(OC3CC(OC)C(O)C(C)O3)C(C)C=CC=C3COC4C(O)C(C)=CC(C(=O)O1)C34O)O2 (stereo not drawn) [Ivermectin monosaccharide, 22,23-dihydroavermectin B1a monosaccharide] | 2 | 2
Ivermectin | 2 | 2
